Patent US6693123B2 (University of Pittsburgh, priority 1995, dated 2004)
Counter-ions that a name gives are not always drawn. Like-named read-outs stand apart in the source and are kept apart here.

Target: T1, Rat brain protein farnesyltransferase (Rattus norvegicus, UniProt Q02293+Q04631)
T1 construct: The enzyme is purified according to Reiss, Y., et al., Cell, 62: 81-88 (1990), utilizing steps one through three; from tissue; host or cells: rat brain
Experiment: In vitro inhibition of protein farnesyltransferase, Amersham scintillation proximity assay with biotin-K Ras B fragment
Format: biochemical
Settings: for inhibition at 1 µM: read-out: % inhibition at 1 × 10^−6 M; for inhibition at 10 µM: compound at 1 × 10^−5 M (Table 1)
Source text: The ability of the compounds of the invention to inhibit protein farnesyltransferase or protein geranylgeranyltransferase can be measured according to the method of Moores, et al., J. Biol. Chem. 266: 14603 (1991) or the method of Vogt, et al., J. Biol. Chem. 270:660-664 (1995). In addition, procedures for determination of the inhibition of farnesylation of the oncogene protein Ras are described by Goldstein, et al., J. Biol. Chem., 266:15575-15578 (1991) and by Singh in U.S. Pat. No. 5,245,061.
In addition, in vitro inhibition of protein farnesyltransferase may be measured by the following procedure. Rat brain protein farnesyltransferase activity is measured using an Amersham Life Science commercial scintillation proximity assay kit and substituting a biotin-K Ras B fragment (biotin-[…]Ue-Met-CO2H), 0.1 mM final concentration, for the biotin-lamin substrate provided by Amersham. The enzyme is purified according to Reiss, Y., et al., Cell, 62: 81-88 (1990), utilizing steps one through three. […]
The % inhibition of protein farnesyltransferase was determined for representative compounds of the invention.

[1] = Inhibition of farnesyltransferase, compound at 1 × 10^−6 M (Table 2)
[2] = Inhibition of farnesyltransferase, compound at 1 × 10^−8 M (Table 4), read-out: % inhibition at 1 × 10^−8 M
[3] = Inhibition of farnesyltransferase
[4] = read-out: % inhibition at 0.01 μM

SMILES	inhibition at 1 µM [1]	further results
CS(=O)(=O)CC[C@H](NC(=O)c1ccc(NC(=O)c2cccnc2)cc1-c1ccccc1)C(=O)O [Example 203, [4-(3-Pyridylcarbonylamino)-2-phenylbenzoyl]-2-amino-4-(methylsulfonyl)butanoic Acid]	76%	
CSCC[C@H](NC(=O)c1ccc(COc2cccnc2)cc1-c1ccccc1C)C(=O)NS(=O)(=O)c1ccccc1 [Example 253, [4-(3-Pyridyloxymethyl)-2-(2-methylphenyl)benzoyl]methionine Phenylsulfonimide]	99%	
CSCC[C@H](NC(=O)c1ccc(COc2cccnc2)cc1-c1ccccc1C)C(=O)O [Example 204, [4-(3-Pyridyloxymethyl)-2-(2-methylphenyl)benzoyl]methionine]	98%	
CSCC[C@H](NC(=O)c1ccc(CN(Cc2ccccc2)c2cccnc2)cc1-c1ccc(F)cc1Cl)C(=O)O [Example 873, N-(4-(N-Benzyl-N-pyrid-3-ylaminomethyl)-2-(2-chloro-4-fluorophynel)beonzoyl)methionine]		inhibition at 0.01 µM [2]: 97%
CSCC[C@H](NC(=O)c1ccc(C(O)c2ccncc2)cc1-c1ccccc1)C(=O)O (some centres unmarked) [Example 298, [4-(4-Pyridylhydroxymethyl)-2-phenylbenzoyl]methionine Sodium Salt]	43%	
CSCC[C@H](NC(=O)c1ccc(NC(=O)c2cnccc2C(F)(F)F)cc1-c1ccccc1C)C(=O)[O-].[Li+] [Example 481, N-[4-N-(4-Trifluoromethylnicotinoyl)amino-2-(2-methylphenyl)benzoyl]methionine Lithium Salt]		% inhibition at 1 × 10^−6 M [1]: 95%
CCCCc1cc(C(=O)N[C@@H](CCSC)C(=O)O)c(-c2ccccc2C)cc1COc1cccnc1 [Example 319, [4-(3-Pyridyloxymethyl)-2-(2-methylphenyl)-5-butylbenzoyl]methionine]	98%	
CS(=O)(=O)CC[C@H](NC(=O)c1ccc(C(O)C(O)c2cccnc2)cc1-c1ccccc1)C(=O)O (mixture of isomers) [Example 221, N-{4-[2-(Pyrid-3-yl)-1,2-dihydroxyethyl]-2-phenylbenzoyl]-2-amino-4-(methylsulfonyl)butanoic Acid]	55%	
CC(C)C[C@H](NC(=O)c1ccc(NCc2c[nH]cn2)cc1-c1ccccc1)C(=O)O [Example 387, 4-[N-(1H-Imidazol-4-yl)methylamino-2-phenylbenzoyl]leucine]		inhibition at 10 µM [3]: > 50%
COC(=O)[C@H](CCSC)NC(=O)c1ccc(NCc2cccnc2)cc1-c1ccccc1C [Example 308, [4-(3-Pyridylmethylamino)-2-(2-methylphenyl)benzoyl]methionine Methyl Ester]	62%	
CSCC[C@H](NC(=O)c1ccc(NC(=O)c2cnccc2C(F)(F)F)cc1-c1ccccc1)C(=O)O [Example 282, [4-(4-Trifluoromethylpyrid-3-ylcarbonylamino)-2-phenylbenzoyl]methionine Sodium Salt]		inhibition at 1 µM: 76%
CC(C)C[C@H](NC(=O)c1ccc(NCc2cccnc2)cc1-c1ccccc1)C(=O)O [Example 390, 5-[N-(3-Pyridinyl)methylamino-2-phenylbenzoyl]leucine]		inhibition at 10 µM [3]: > 50%
CSCC[C@H](NC(=O)c1ccc(CN(Cc2ccccc2)c2cccnc2)cc1-c1ccccc1C)C(=O)OCOC(=O)C(C)(C)C [Example 500, Pivaloyloxymethyl N-[4-N-Benzyl-N-pyridin-3-ylaminomethyl-2-(2-methylphenyl)benzoyl]methionine]	98%	
CSCC[C@H](NC(=O)c1ccc(/C=C/c2cnccc2C(O)(c2ccccc2)c2ccccc2)cc1-c1ccccc1C)C(=O)O [Example 805, Lithium Salt]		inhibition at 0.01 µM (read-out: % inhibition at 1 × 10^−8 M): 96%
O=C(N[C@H]1CCOC1=O)c1ccc(NCc2cccnc2)cc1-c1ccccc1 [Example 190, [4-(3-Pyridylmethylamino)-2-phenylbenzoyl]homoserine Lactone]	4%	
CSCC[C@H](NC(=O)c1ccc(C#Cc2cccnc2)cc1-c1ccccc1)C(=O)O [Example 218, {4-[(Pyrid-3-yl)ethynyl]-2-phenylbenzoyl}methionine Hydrochloride]	89%	
CSCC[C@H](NC(=O)c1ccc(C=Cc2cccnc2)cc1-c1ccccc1C)C(=O)O [Example 276, {4-[2-(Pyrid-3-yl)ethenyl]-2-(2-methylphenyl)benzoyl}methionine Sodium Salt]	98%	
CSCC[C@H](NC(=O)c1cc(-c2cccs2)c(COc2cccnc2)cc1-c1ccccc1C)C(=O)O [Example 346]	98%	
C[C@H](NC(=O)c1ccc(COc2cccnc2)cc1-c1ccccc1)C(=O)O [Example 187, [4-(3-Pyridyloxymethyl)-2-phenylbenzoyl]alanine]	68%	

SMILES	inhibition at 1 µM [1]	further results
CSCC[C@H](NC(=O)c1ccc(C=Cc2cccnc2)cc1-c1ccccc1C)C(=O)OCOC(=O)C(C)(C)C [Example 296]		% inhibition at 1 × 10^−6 M [1]: 89%
CSCC[C@H](NC(=O)c1ccc(CNCc2c[nH]cn2)cc1-c1ccccc1C)C(=O)O [Example 954, N-[4-(Imidazol-4-ylmethylaminomethyl)-2-(2-methylphenyl)benzoyl]methionine]		inhibition at 0.01 µM [2]: > 50%
CSCC[C@H](NC(=O)c1ccc(Sc2cccnc2)cc1-c1ccccc1)C(=O)O [Example 241]	41%	
CCN(CC)C(=O)COC(=O)[C@H](CCSC)NC(=O)c1ccc(CN(Cc2ccccc2)c2cccnc2)cc1-c1ccccc1C [Example 501, N,N-Diethylaminocarbonylmethyl N-[4-N-benzyl-N-pyridin-3-ylaminomethyl-2-(2-methylphenyl)benzoyl]methionine]	84%	
CSCC[C@H](NC(=O)c1ccc(/C=C/n2ccnc2)cc1-c1ccccc1C)C(=O)O [Example 278, {4-[2-(1H-1-Imidazolyl)ethenyl]-2-(2-methylphenyl)benzoyl}methionine Sodium Salt]		inhibition at 1 µM: 99%
CSCC[C@H](NC(=O)c1ccc(/C=C/c2cccnc2)cc1-c1ccccc1C)C(=O)NC(=O)c1ccccc1 [Example 797, Benzoyl N-[4-(2-Pyrid-3-ylethen-1-yl)-2-(2-methylphenyl)benzoyl]methioninamide]	35%	
CSCC[C@H](NC(=O)c1ccc(NCc2cccnc2)cc1-c1ccccc1)C(=O)O [Example 192, [4-(3-Pyridylmethylamino)-2-phenylbenzoyl]methionine]	95%	
CCc1nc(NC(=O)c2ccc(COc3cccnc3)cc2-c2ccccc2)sc1C(=O)O [Example 228]	39%	
CSCC[C@H](NC(=O)c1ccc(COc2cccnc2)cc1-c1ccccc1)C(=O)NO [Example 249, [4-(3-Pyridyloxymethyl)-2-phenylbenzoyl]methionine Hydroxamic Acid]	77%	
CCc1cc(C(=O)N[C@@H](CCSC)C(=O)O)c(-c2ccccc2C)cc1COc1cccnc1 [Example 918, N-[5-Ethyl-4-(pyrid-3-yloxymethyl)-2-(2-methylphenyl)benzoyl]methionine]	97%	
CSCC[C@H](NC(=O)c1cc(CCc2ccccc2)c(COc2cccnc2)cc1-c1ccccc1C)C(=O)O [Example 922, N-[5-(2-Phenylethyl)-4-(pyrid-3-yloxymethyl)-2-(2-methylphenyl)benzoyl]methionine]		inhibition at 0.01 µM [2]: 96%
CSCC[C@H](NC(=O)c1ccc(/C=C/c2cnccc2Cl)cc1-c1ccccc1C)C(=O)O [Example 1040, N-[4-(2-(4-Chloropyridin-3-yl)ethenyl)-2-(2-methylphenyl)benzoyl]methionine Lithium Salt]		inhibition at 0.01 µM [4]: 90%
CSCC[C@H](NC(=O)c1cc(-c2ccc(C)cc2)c(COc2cccnc2)cc1-c1ccccc1C)C(=O)O [Example 343]	72%	
CSCC[C@H](NC(=O)c1ccc(CNc2cnccc2C)cc1-c1ccccc1)C(=O)O [Example 280]		inhibition at 1 µM: 98%
CSCC[C@H](NC(=O)c1ccc(CNC(=O)c2cn(C)cn2)cc1-c1ccccc1)C(=O)O [Example 332, [4-(1H-1-Methylimidazol-4-ylcarbonylaminomethyl)-2-phenylbenzoyl]methionine]	26%	
CSCC[C@H](NC(=O)c1ccc(CSCc2c[nH]cn2)cc1-c1ccccc1)C(=O)O [Example 242, [4-(1H-Imidazol-4-ylmethylthiomethyl)-2-phenylbenzoyl]methionine]	99%	
CSCC[C@H](NC(=O)c1ccc(C=Cc2cnccc2O)cc1-c1ccccc1C)C(=O)O [Example 1039, N-[4-(2-(4-Hydroxypyridin-3-yl)ethenyl)-2-(2-methylphenyl)benzoyl]methionine Lithium Salt]		inhibition at 0.01 µM [4]: 89%
CSCC[C@H](NC(=O)c1ccc(CN(C(=O)c2ccccc2)c2cccnc2)cc1-c1ccccc1C)C(=O)O [Example 569, N-[4-N-Benzoyl-N-pyrid-3-ylaminomethyl-2-(2-methylphenyl)benzoyl]methionine]		% inhibition at 1 × 10^−6 M [1]: 91%
CSCC[C@H](NC(=O)c1cc(I)c(COc2cccnc2)cc1-c1ccccc1C)C(=O)O [Example 347]		inhibition at 1 µM: 95%
